The values below are quoted from earlier work in US20060264381A1, “Methods of treating obsessive compulsive disorder” (priority 2005, published 2006).

SMILES strings stand for the structures.

The subject of data set [1] is Gp1 mGluR5 on cultured hippocampal neurons.
The test system of data set [2] is cultured cortical neurons. The settings on record: cultures prepared from Fmr1 knockout (KO) mice lacking FMRP.
The subject of data set [3] is synaptosomes prepared from the cortex of Fmr1 KO mice.
For the next data set, the target named is T1, mGluR5 (Mus musculus, UniProt Q3UVX5).
T1 construct: from tissue; host or cells: brain slices from Fmr1 knockout mouse (hippocampal area CA3 by context)
The settings on record: slices from the Fmr1 KO mouse.

Data set [4] has as its system Drosophila mGluR, DmGluRA. The settings on record: flies lacking dfmr1 raised with food containing drug.

T1 sequence (Q3UVX5 19-1203): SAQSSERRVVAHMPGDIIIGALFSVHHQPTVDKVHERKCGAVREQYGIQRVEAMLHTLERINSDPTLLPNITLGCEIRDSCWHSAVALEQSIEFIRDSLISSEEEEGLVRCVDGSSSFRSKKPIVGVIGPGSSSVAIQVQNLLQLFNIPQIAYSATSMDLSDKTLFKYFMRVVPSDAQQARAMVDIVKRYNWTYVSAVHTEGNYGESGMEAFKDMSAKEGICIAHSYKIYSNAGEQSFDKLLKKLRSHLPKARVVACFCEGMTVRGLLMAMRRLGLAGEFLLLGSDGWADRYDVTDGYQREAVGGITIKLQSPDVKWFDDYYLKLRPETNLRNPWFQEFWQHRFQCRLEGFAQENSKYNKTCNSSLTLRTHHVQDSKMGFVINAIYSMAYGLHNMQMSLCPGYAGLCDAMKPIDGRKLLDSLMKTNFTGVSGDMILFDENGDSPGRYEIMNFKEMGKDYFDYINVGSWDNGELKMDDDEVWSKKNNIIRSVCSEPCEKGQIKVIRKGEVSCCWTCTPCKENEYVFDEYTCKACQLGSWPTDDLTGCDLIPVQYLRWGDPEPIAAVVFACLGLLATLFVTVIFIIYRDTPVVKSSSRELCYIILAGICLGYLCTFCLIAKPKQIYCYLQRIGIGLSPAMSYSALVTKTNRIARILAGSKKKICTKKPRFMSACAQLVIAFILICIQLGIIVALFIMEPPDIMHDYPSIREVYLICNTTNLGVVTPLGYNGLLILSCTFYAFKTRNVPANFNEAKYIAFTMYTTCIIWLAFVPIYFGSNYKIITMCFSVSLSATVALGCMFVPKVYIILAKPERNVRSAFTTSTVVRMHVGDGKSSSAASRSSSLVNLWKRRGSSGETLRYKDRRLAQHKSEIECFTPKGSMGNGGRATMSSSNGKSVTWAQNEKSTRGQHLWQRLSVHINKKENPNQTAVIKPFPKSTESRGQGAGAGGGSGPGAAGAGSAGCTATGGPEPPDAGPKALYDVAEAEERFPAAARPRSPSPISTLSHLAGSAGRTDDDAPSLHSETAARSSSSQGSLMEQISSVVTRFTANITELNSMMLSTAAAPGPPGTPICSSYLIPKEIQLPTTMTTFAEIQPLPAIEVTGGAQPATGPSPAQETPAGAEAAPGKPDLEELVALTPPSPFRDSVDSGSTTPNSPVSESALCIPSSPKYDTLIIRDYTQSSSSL

For the compound `N[C@@H](C(=O)O)c1cc(O)cc(O)c1` (racemic) [DHPG, (R,S)-3,5-dihydroxyphenylglycine], in data set [1] (cultured hippocampal neurons), the “delivery of FMRP to dendrites” value is on record as “triggers the delivery of FMRP to dendrites” and the “loss of AMPA receptors from synapses” value is given as “stimulates the loss of AMPA receptors from synapses”. Besides, in data set [1] (prolonged treatment of hippocampal neurons), the “proportion of long, thin dendritic spines” value is given as “increased the proportion of long, thin dendritic spines”. In addition, the PSD-95 levels result in data set [2] is “fails to increase PSD-95 levels”. In addition, the polyribosome assembly result in data set [3] was “fails to stimulate polyribosome assembly”.

In the case of `Cc1cccc(C#Cc2ccccc2)n1` [MPEP, 2-methyl-6-(phenylethynyl)-pyridine], on mGluR5, the “ictal-like activity emerging spontaneously in slices” value is recorded as “reversed”. In data set [4], the “rescue of phenotypes in mutant flies (altered courtship behavior, decreased memory in conditioned courtship assay, mushroom body structure)” value is “rescued”.
